Assays:
DUBs = experiment: DUB activity profiling in HEK293T cell lysate with general DUB probe Rho-Ub-PA; type: biochemical; details: compound 5 μM 1 h 37 °C, then Rho-Ub-PA 30 min, Figure S5
Protocol: Due to the structural similarity of PARK7 inhibitor JYQ-88 and UCHL1 inhibitor 8RK64 and the fact that many cyanimide-containing compounds have been identified as DUB inhibitors,[35],[37] we investigated the inhibitory potential of JYQ-88 and JYQ-92 toward DUBs. After treating the HEK293T cell lysate with JYQ-88 and JYQ-92, along with UCHL1 inhibitors, 6RK73 and 8RK64 as controls,[38] the remaining activity of DUBs was determined using the general DUB probe Rho-Ub-PA (Figure S5).[39]
Figure S5. Fluorescence labeling of DUBs to investigate their remaining activity by Rh-Ub-
PA after the treatment with PARK7 inhibitor JYQ-88 and probe JYQ-92. UCHL1 inhibitors,
6RK73 and 8RK64, were used as a control. HEK293T cell lysate was treated with 5 μM final
MOPS SDS running buffer (Novex, NuPAGE) and visualized by fluorescence scanning on a
Typhoon FLA 9500 (GE Healthcare Life Sciences) using a Rhodamine channel (λex/em
(1 picture or pasted object on this page, not shown here)

PARK7 [1] = target: T1, PARK7 (Homo sapiens, UniProt Q99497); experiment: High-throughput FP screen of covalent fragment library with JYQ-107; type: binding; parameters: GST (N, cleaved yes); made in house; host or cells: E. coli BL21(DE3) Rosetta2; details: HTS, 100 μM compound, PARK7 0.2 μM, 2 h preincubation, JYQ-107 20 nM, 1536-well
T1 sequence (Q99497 1-189): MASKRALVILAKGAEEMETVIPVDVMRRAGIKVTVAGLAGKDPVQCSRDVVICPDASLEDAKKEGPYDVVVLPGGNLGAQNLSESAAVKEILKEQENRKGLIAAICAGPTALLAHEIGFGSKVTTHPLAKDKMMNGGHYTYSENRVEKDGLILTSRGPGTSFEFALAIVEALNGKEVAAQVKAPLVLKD
Protocol: The screen was conducted using the conditions as described above in 1536-well plates (Corning 3724) with a reaction volume of 8 μL per well. The compound library containing 7887 covalent fragments was purchased at Enamine Ltd. and received as 100 mM DMSO stocks in 384 well LDV Echo plates (Labcyte LP-0200). Stock solutions of 0.26 μM PARK7 and 80 nM JYQ-107 were prepared. Using a Labcyte Echo550 acoustic dispenser, 8 nL of the DMSO stock solution of the library compounds was transferred from the source plates into the empty 1536-well screening plates to obtain a 100 μM final compound concentration. Next, PARK7 (6 μL, final concentration 0.2 μM) was dispensed using a Biotek MultiflowFX liquid dispenser and incubated for 2 h, followed by dispensing the probe JYQ-107 (2 μL, final concentration 20 nM). After 2 h incubation, the FP signal was recorded on a BMG Labtech PHERAstar plate reader (λex/em 480/520 nm). The relative loss of FP signal compared with reference controls was used to calculate the remaining enzyme activity.

PARK7 [2] = target: T1, PARK7; experiment: FP assay with Rhodamine110 probe JYQ-107 (IC50 and hit validation); type: binding; parameters: GST (N, cleaved yes); made in house; host or cells: E. coli BL21(DE3) Rosetta2; details: PARK7 0.2 μM, 1 h preincubation, JYQ-107 20 nM; for inhibition at 12.5 µM: 12.5 µM compound, read-out: FP assay %Inhibiton (12.5 µM); for inhibition at 37.5 µM: 37.5 µM compound, read-out: FP assay %Inhibiton (37.5 µM); for inhibition at 100 µM: 100 µM compound, read-out: FP assay %Inhibiton (100 µM)
PARK7 [3] = target: T1, PARK7; experiment: DiFMUAc PARK7 activity assay; type: biochemical; parameters: GST (N, cleaved yes); made in house; host or cells: E. coli BL21(DE3) Rosetta2; details: PARK7 0.1 μM, 2 h preincubation, DiFMUAc 300 μM; for inhibition at 12.5 µM: 12.5 µM compound, read-out: DiFMuAc assay %Inhibiton (12.5 µM); for inhibition at 37.5 µM: 37.5 µM compound, read-out: DiFMuAc assay %Inhibiton (37.5 µM); for inhibition at 100 µM: 100 µM compound, read-out: DiFMuAc assay %Inhibiton (100 µM)
Protocol: Compounds were transferred using a Labcyte Echo550 acoustic dispenser to obtain a 12-point serial dilution of 0.001 to 100 μM. Next, PARK7 (15 μL, final concentration of 0.1 μM) was dispensed with a Biotek MultiFlowFX liquid dispenser and incubated for 1 h, followed by dispensing the substrate DiFMUAc (5 μL, final concentration of 300 μM). The fluorescence intensity (FI) signal was monitored with a BMG Labtech PHERAstar plate reader (λex/em 350/450 nm) for 1 h.
The validation was performed in the PBS buffer with a reaction volume of 20 μL per well in triplicate. […] Next, PARK7 (15 μL, final concentration 0.1 μM) was dispensed with a Biotek MultiFlowFX liquid dispenser and incubated for 2 h, followed by dispensing the substrate DiFMUAc (5 μL, final concentration 300 μM). The FI signal was monitored with a BMG Labtech PHERAstar plate reader (λex/em 350/450 nm) for 1 h. The increase of FI signal compared with reference controls was used to calculate the remaining enzyme activity. The inhibition percentage of these 22 compounds was plotted as a heatmap using GraphPad Prism 9.0.1 software. Color gradients indicate inhibition percentage, no inhibiton (white) and full inhibition (blue).

PARK7 [4] = target: T1, PARK7; experiment: Gel-based competition assay in HEK293T cell lysate with probe JYQ-92; type: biochemical; parameters: GST (N, cleaved yes); made in house; host or cells: E. coli BL21(DE3) Rosetta2; details: fragment 0.1–50 μM 2 h 37 °C, then JYQ-92 1 μM 30 min, Figure 6E
From the text: We next assessed whether we could measure the inhibitory activity of an inhibitor against PARK7 in a cell lysate using JYQ-92 to label the remaining activity of PARK7. […] The disappearance of the labeling band is a measure for inhibition.

PARK7 [5] = target: T1, PARK7; experiment: Probe labeling of purified recombinant PARK7 (SDS-PAGE, fluorescence scanning); type: binding; parameters: GST (N, cleaved yes); made in house; host or cells: E. coli BL21(DE3) Rosetta2; details: purified PARK7 1 μM, 1 h 37 °C; Figure 4A
From the text: PARK7 inhibitor JYQ-88 was further converted into activity-based probes by installing SulfoCy5, Rhodamine110, or BodipyFL. We took advantage of the azide moiety in JYQ-88 and conjugated alkyne versions of these dyes using the copper(I)-catalyzed azide alkyne cycloaddition (CuAAC) to obtain compounds JYQ-92, JYQ-93, and JYQ-107 (Scheme 2). We next investigated the ability of the probes to label and visualize PARK7. […] The SulfoCy5 probe JYQ-92 and Rhodamine110 probe JYQ-107 labeled PARK7 already at 1 μM, while the BodipyFL probe JYQ-93 was less efficient than the other probes as PARK7 labeling was only observed from 5 μM.
All the labeling assays were performed in Tris buffer (50 mM Tris–HCl, 150 mM NaCl, 2 mM TCEP, pH 7.5). For labeling with the 8RK59 probe, 1 μM final concentrations of UCHL1 and PARK7 were individually or together incubated with 2 μM final concentrations of 8RK59 for 30 min at 37 °C, followed by protein visualization. For labeling with JYQ-92, JYQ-93, and JYQ-107, 1 μM final concentration of PARK7 was incubated with different concentrations (0, 0.1, 0.5, 1, 2, 5, and 10 μM) of the indicated probes for 1 h at 37 °C. […] These samples were resolved by SDS-PAGE using precast Bis-Tris gels (Invitrogen, NuPAGE) with MES SDS running buffer (Novex, NuPAGE).

UCHL1 = target: T2, UCHL1 (Homo sapiens, UniProt P09936); experiment: UCHL1 activity assay (Ub-Rho-Morpholine or Ub-AMC substrate); type: biochemical; details: UCHL1 1 nM, 1 h preincubation; read-out: UbRhoMP assay UCHL1 IC50
T2 sequence (P09936 1-223): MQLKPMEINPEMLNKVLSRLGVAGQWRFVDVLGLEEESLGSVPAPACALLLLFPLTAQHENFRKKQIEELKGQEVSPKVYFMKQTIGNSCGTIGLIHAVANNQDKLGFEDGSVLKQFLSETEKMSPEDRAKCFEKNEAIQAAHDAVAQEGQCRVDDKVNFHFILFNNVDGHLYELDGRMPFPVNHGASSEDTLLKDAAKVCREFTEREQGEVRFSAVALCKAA
Protocol: The assay was performed in a buffer containing 50 mM Tris·HCl, 100 mM NaCl at pH 7.5, 2.0 mM cysteine, 1 mg/mL 3-[(3-cholamidopropyl)dimethylammonio]propanesulfonic acid (CHAPS), and 0.5 mg/mL bovine serum albumin and conducted in a 384-well plate (Corning 3820) with a reaction volume 20 μL in triplicate. The compounds were dissolved in DMSO as 10, 1, and 0.1 mM stock solutions and were transferred to obtain a 12-point serial dilution of 0.05 to 200 μM. Next, UCHL1 (15 μL, final concentration of 1 nM) was dispensed with a Biotek MultiFlowFX liquid dispenser and incubated for 1 h, followed by dispensing the substrate Ub-Rho-Morpholine or Ub-AMC (5 μL, final concentration of 400 nM). The FI signal was monitored with a BMG Labtech PHERAstar plate reader (λex/em 487/535 nm or λex/em 350/450 nm) for 1 h. N-Ethylmaleimide (NEM, 10 mM) was used as a positive control (100% inhibition), and DMSO was used as a negative control (0% inhibition). All samples were normalized to the positive and negative controls and plotted against the inhibitor concentrations (in μM) using the built-in equation “[inhibitor] vs response – variable slope (four parameters), least-squares fit” with constraints “Bottom = 0” and “Top = 100” in GraphPad Prism 9.0.1 software to obtain the IC50 values.

In the case of `N#CN1CC[C@H](C(=O)Nc2ncc(N3CCOCC3)s2)C1` [6RK73, reference compound], the “Effect on remaining DUB activity (Rho-Ub-PA labeled bands)” value (DUBs) is reported as “disappearance of the UCHL1 band”.
`NCC1CCN(C(=O)C=Cc2ccc(Cl)s2)C1` (stereo not shown) [Z2242910917, 1-[3-(aminomethyl)pyrrolidin-1-yl]-3-(5-chlorothiophen-2-yl)prop-2-en-1-one] showed an Inhibition % (PARK7 [1]) of -0.36%.
With `C#CC(=O)N1CCc2cc(C(=O)O)ccc21` [Z3227873366, 1-(prop-2-ynoyl)-2,3-dihydro-1H-indole-5-carboxylic acid] the Inhibition % (PARK7 [1]) was 1.76%.
In the case of `N#CC=Cc1cccc2cccnc12` [Z3236183481, 3-(quinolin-8-yl)prop-2-enenitrile], the Inhibition % (PARK7 [1]) is reported as -0.97%.
With `O=C(O)c1csc(C(=O)CCl)c1` [Z763366298] the inhibition at 12.5 µM (PARK7 [2]) was 100%, the inhibition at 37.5 µM (PARK7 [2]) was 100% and the inhibition at 100 µM (PARK7 [2]) was 100%. It also gave an inhibition at 12.5 µM (PARK7 [3]) of 97.9%, an inhibition at 37.5 µM (PARK7 [3]) of 97.6% and an inhibition at 100 µM (PARK7 [3]) of 97.3%. The “Ability to inhibit PARK7 in a cell lysate” value (PARK7 [4]) was “confirmed”.
Work on `CCC(C)c1ccc(NC(=O)CCl)cc1` (stereo not shown) [Z56886389] yielded an inhibition at 12.5 µM (PARK7 [2]) of 100%, an inhibition at 37.5 µM (PARK7 [2]) of 100% and an inhibition at 100 µM (PARK7 [2]) of 100%. For the same compound, the inhibition at 12.5 µM (PARK7 [3]) was 95.8%, the inhibition at 37.5 µM (PARK7 [3]) was 95.2% and the inhibition at 100 µM (PARK7 [3]) was 97.1%. For the same compound, the “Ability to inhibit PARK7 in a cell lysate” value (PARK7 [4]) was “confirmed”.
For `O=C(NC1CCN(Cc2ccccc2)CC1)n1ccnc1` [Z319217184, N-(1-benzylpiperidin-4-yl)-1H-imidazole-1-carboxamide], the Inhibition % (PARK7 [1]) was 1.56%.
`CC1=CC(C)=[N+]2C1=C(CCCCc1cn(CC(=O)N3CCc4nc(NC(=O)[C@@H]5CCN(C#N)C5)sc4C3)nn1)c1c(C)cc(C)n1[B-]2(F)F` [JYQ-93] was tested, and the “Probe concentration from which PARK7 labeling was observed” value (PARK7 [5]) was 5 µM and the IC50 (UCHL1) was 23 µM.
`CC1(C)CN(C(=O)CC2OCCCO2)CC2(CCCC2)O1` [Z1953185127, 1-{7,7-dimethyl-6-oxa-9-azaspiro[4.5]decan-9-yl}-2-(1,3-dioxan-2-yl)ethan-1-one] showed an Inhibition % (PARK7 [1]) of 1.97%.

— paper PMC9574860, “Chemical Toolkit for PARK7: Potent, Selective, and High-Throughput” (Journal of Medicinal Chemistry, 2022)
